What all share (assay): NCI anticancer screen, dose series, 48 h
For assay [1], the system named is LOX IMVI melanoma.
The subject of assay [2] is BT-549 breast.
In assay [3] the test system is SK-MEL-2 melanoma.
Assay [4] has as its system EKVX NSCLC.
Assay [5] has as its system UO-31 renal.
The test system of assay [6] is DU-145 prostate.
Assay [7] relates to T-47D breast.
Assay [8] has as its system HCT-15 colon.
Assay [9] deals with MALME-3M melanoma.
Assay [10] relates to RXF 393 renal.

The structures appear in SMILES notation.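 These data come from cells grown in 96-well plates and exposed to compound for 48 hours at five concentrations. GI50 = concentration required for 50% inhibition of growth. TGI is the concentration that stops growth completely.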

On to `O=C1Nc2ccc(O)cc2/C1=C\c1ccncc1`, for which the GI50 in assay [1] is 12 µM; in assay [2], 15.2 µM; in assay [3], 14.5 µM; in [4] it was 10.6 µM; in [5], 14.1 µM; in assay [6], 19.5 µM. Also, the GI50 in assay [7] is 26.9 µM; in assay [8], 11 µM. Besides, the TGI in assay [1] stood at 25.6 µM; in assay [2], 43.6 µM; in assay [3], 43.1 µM; in assay [4], 56 µM; in assay [5], 31.8 µM; in [6] it was 54.2 µM. In addition, the TGI was greater than 100 µM in [7] and 39 µM in [8].
In the case of `O=C(Nc1ccn(C2CC(I)C(COC(c3ccccc3)(c3ccccc3)c3ccccc3)O2)c(=O)n1)c1ccccc1` (centres undefined), the TGI in assay [1] came out at 14.7 µM; in assay [2] it was 67 µM; in assay [4] it was 21.5 µM; in assay [9], 13.4 µM; in assay [5], 12.8 µM; in assay [10], 13.2 µM. Further, the TGI in assay [6], in assay [7] and in assay [8] was 21.5 µM each time.
Regarding `COc1ccc(C2=NN(C=O)C(c3ccc(OS(=O)(=O)c4ccc(C)cc4)c(OC)c3)C2)cc1` (centres undefined), the GI50 is 9.41 µM in [1]; 3.35 µM in [2]; 3.52 µM in assay [3]; 7.09 µM in [9]; 3.39 µM in [5]; 3.81 µM in [10]. Besides, the GI50 in assay [6] is 74.9 µM; in assay [7], 2.27 µM; in [8], 4.19 µM. Besides, the TGI is greater than 100 µM in [1]; 58.1 µM in assay [2]; 38.6 µM in [3]; 49.3 µM in [9]; greater than 100 µM in [5]; 46.8 µM in [10]. Moreover, the TGI in assay [6], in assay [7] and in [8] was greater than 100 µM in each case.
For `c1ccc(COCC[P+](c2ccccc2)(c2ccccc2)c2ccccc2)cc1`, the GI50 in assay [1] is 1.87 µM; in [2] it was 0.953 µM; in [3], 1.93 µM; in [5], 4.82 µM; in [6], 2.01 µM; in [7], 0.259 µM. For the same compound, the GI50 in assay [8] is 14.2 µM. Besides, the TGI in assay [1] is 6.05 µM; in assay [2], 15.5 µM; in assay [3] it was 4.96 µM; in [5], 28.4 µM; in assay [6] it was 26.2 µM; in assay [7], 21.6 µM. The compound also came in with a TGI in assay [8] greater than 100 µM.
In the case of `COc1cccc(CCNC(=O)CC(c2ccccc2)(c2ccccc2)c2ccccc2)c1`, the GI50 in [2] was greater than 100 µM; in [3], 4.41 µM; in [4], 22.7 µM; in assay [5] it was 4.75 µM; in assay [6], 26.8 µM; in [7], greater than 100 µM. Further, in assay [8], the GI50 is greater than 100 µM. The TGI in assay [2], in [3], in assay [4], in assay [5], in assay [6] and in assay [7] was greater than 100 µM throughout. Moreover, the TGI in assay [8] was greater than 100 µM.
For `C/C=C(\C)c1cc(=O)c2c(C)cc3c(c2o1)C(OC)(OC(C)=O)c1c(O)c(C2CC(C)(N(C)C)C(OC(C)=O)C(C)O2)cc(C2CC(N(C)C)C(OC(C)=O)C(C)O2)c1C3=O` (centres undefined), the TGI in assay [2] was 7.47 µM; in assay [4], 11.6 µM; in assay [9] it was 2.37 µM; in [5], 4.68 µM; in [6], 5.08 µM; in assay [7] it was 17.6 µM. In addition, the TGI in assay [8] came out at 6.9 µM.
On to `CCSc1nc(NC(C)c2ccccc2)c2cnn(CO)c2n1` (centres undefined), for which the GI50 is 37 µM in assay [1]; 17.7 µM in assay [2]; greater than 100 µM in [3]; 29.6 µM in [9]; 66.5 µM in assay [5]; 91.5 µM in assay [10]. Further, the GI50 was greater than 100 µM in assay [6], greater than 100 µM in assay [7] and 70.2 µM in assay [8]. The TGI in assay [1] was greater than 100 µM; in assay [2], 64.1 µM; in assay [3], greater than 100 µM; in assay [9] it was 84.9 µM; in [5], greater than 100 µM; in assay [10] it was greater than 100 µM. Besides, the TGI in [6], in [7] and in assay [8] was greater than 100 µM in each case.
As to `C[C@]12CCCN1CC1=NNC(=O)c3cc(F)cc4[nH]c2c1c34`, the GI50 in assay [1] is 7.64 µM; in assay [2], 23.2 µM; in assay [3], 22.3 µM; in [4], 13.6 µM; in [9], 28.9 µM; in [5], 16 µM. The GI50 in assay [6] was 32.6 µM; in assay [7], 20.6 µM; in [8], 21.2 µM. The TGI was 60.3 µM in [1]; 99.6 µM in assay [2]; 52.4 µM in assay [3]; 49.7 µM in assay [4]; 70.5 µM in assay [9]; greater than 100 µM in assay [5]. The values for the TGI in assay [6], in assay [7] and in assay [8] were greater than 100 µM, 91.9 µM and greater than 100 µM, respectively.
On to `CCOC(=O)C1=C(C)NC(C)=C(C(=O)OCCNC(=O)c2ccc(N=[N+]=[N-])cc2)C1c1ccccc1C(F)(F)F` (centres undefined), for which the TGI in assay [1] was greater than 31.6 µM; in assay [2], 68.2 µM; in assay [4], 21.5 µM; in [9] it was 21.5 µM; in assay [5] it was 21.5 µM; in assay [10], 21.5 µM. Also, the TGI in assay [6], in [7] and in assay [8] was 21.5 µM in each case.
In the case of `C=C1C(=O)O[C@@H]2C[C@@H]1CC[C@]1(C)O[C@H]1CC/C(C)=C/CC[C@@]2(C)O`, the GI50 is 0.895 µM in assay [1]; 16.9 µM in assay [2]; 64.4 µM in [3]; 23.4 µM in assay [4]; 29.5 µM in [5]; 25.1 µM in assay [10]. The GI50 in assay [7] was 28.8 µM; in assay [8], 8.51 µM. Further, the TGI in [1] is 4.85 µM; in assay [2], 39.3 µM; in assay [3], greater than 100 µM; in assay [4], 80.2 µM; in assay [5] it was greater than 100 µM; in assay [10], 55.4 µM. The values for the TGI in [7] and in assay [8] were 58.7 µM and 21.3 µM, respectively.

The values above are taken from PubChem BioAssay (NCI).
